Test results as given in patent US11021493B2, “1,4-thiazine dioxide and 1,2,4-thiadiazine dioxide derivatives as beta-secretase inhibitors and methods of use” (AMGEN INC., priority 2016, dated 2021).

Tests used:
[1] = system: BACE; settings: nonhuman primates; cited from earlier work
[2] = cited from earlier work
[3] = target: T1, BACE1 (Homo sapiens (Human), UniProt P56817); assay: In vitro enzymatic BACE1 FRET assay; assay type: biochemical; settings: read-out: BACE1 Enzyme IC50
Target sequence in this assay (P56817 46-501): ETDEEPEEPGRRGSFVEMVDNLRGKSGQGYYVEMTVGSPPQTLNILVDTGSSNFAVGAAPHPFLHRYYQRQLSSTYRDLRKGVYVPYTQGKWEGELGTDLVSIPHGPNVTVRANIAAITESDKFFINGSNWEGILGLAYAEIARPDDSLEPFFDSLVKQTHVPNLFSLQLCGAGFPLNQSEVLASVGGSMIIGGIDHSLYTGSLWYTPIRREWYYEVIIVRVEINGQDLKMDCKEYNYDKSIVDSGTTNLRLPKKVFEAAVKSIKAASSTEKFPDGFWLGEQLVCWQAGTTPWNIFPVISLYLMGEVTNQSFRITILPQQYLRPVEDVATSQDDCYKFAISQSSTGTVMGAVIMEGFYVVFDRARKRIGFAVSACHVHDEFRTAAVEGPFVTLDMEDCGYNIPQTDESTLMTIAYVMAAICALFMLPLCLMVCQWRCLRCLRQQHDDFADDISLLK

[4] = target: T1, BACE1; assay: In vitro BACE1 cell-based assay (Aβ40 in conditioned medium of cells stably expressing APP, HTRF); settings: Aβ40 in conditioned media after 24 h incubation
Target sequence in this assay (P56817 46-501, species assumed): as the sequence (P56817 46-501) above

[5] = target: human recombinant BACE2 (Homo sapiens (Human), UniProt Q9Y5Z0); assay: In vitro enzymatic BACE2 FRET assay; assay type: biochemical; settings: read-out: BACE2 Enzyme IC50
Chain of human recombinant BACE2 (Q9Y5Z0 63-518): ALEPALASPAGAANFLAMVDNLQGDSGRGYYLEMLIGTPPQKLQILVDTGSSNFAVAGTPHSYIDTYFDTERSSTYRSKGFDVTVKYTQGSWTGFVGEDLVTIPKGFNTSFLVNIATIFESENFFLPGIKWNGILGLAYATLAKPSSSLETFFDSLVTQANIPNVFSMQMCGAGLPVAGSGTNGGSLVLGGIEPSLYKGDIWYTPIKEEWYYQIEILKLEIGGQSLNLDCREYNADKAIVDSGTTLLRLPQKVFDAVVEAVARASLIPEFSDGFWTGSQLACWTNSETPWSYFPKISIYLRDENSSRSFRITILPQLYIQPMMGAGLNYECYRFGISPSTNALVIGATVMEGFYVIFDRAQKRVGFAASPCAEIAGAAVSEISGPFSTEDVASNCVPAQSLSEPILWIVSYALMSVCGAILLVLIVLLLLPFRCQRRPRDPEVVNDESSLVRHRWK

[6] = target: Cathepsin D (CatD) (Homo sapiens (Human), UniProt P07339); assay: In vitro enzymatic Cathepsin D (CatD) FRET assay; assay type: biochemical; settings: read-out: Cat D Enzyme IC50
Chain of Cathepsin D (CatD) (P07339 65-412, species assumed): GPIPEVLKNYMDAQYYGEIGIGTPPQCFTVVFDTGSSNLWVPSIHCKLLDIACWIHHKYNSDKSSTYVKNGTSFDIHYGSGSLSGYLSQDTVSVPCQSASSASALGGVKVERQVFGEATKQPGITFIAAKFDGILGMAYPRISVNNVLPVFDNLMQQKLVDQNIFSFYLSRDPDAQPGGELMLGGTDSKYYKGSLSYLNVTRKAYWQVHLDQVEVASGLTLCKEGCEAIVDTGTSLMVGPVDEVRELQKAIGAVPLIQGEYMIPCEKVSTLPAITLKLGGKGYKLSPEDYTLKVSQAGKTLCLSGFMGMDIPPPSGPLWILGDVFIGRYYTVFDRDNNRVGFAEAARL

[7] = target: β-secretase (Rattus norvegicus (Rat), UniProt P56819); assay: In vivo inhibition of β-secretase: Aβ reduction in rat CSF and brain
Chain of β-secretase (P56819 46-501): as the sequence (P56817 46-501) above, with G82S, V162I, L165I, S180T, V182A, I340V, L393A, Q443H counted along it
Method: In Vivo Inhibition of β-Secretase
Animals to be used in this experiment can be wild type, transgenic, or gene knockout animals.
A separate group of animals receive 2% hydroxypropyl methylcellulose, 1% Tween80 alone, containing no test compound, and serve as a vehicle-control group. At the end of the test period, animals are sacrificed and brain tissues, plasma or cerebrospinal fluid are collected. […] Homogenates are centrifuged at 355,000 g, 4° C. for 30 minutes. CSF or brain supernatants are then analyzed for the presence of Aβ by specific sandwich ELISA assays based on ECL (Electrochemiluminescence) technology. For example, rat Aβ40 is measured using biotinylated-4G8 (Signet) as a capture antibody and Fab40 (an in-house antibody specific to the C-terminal of Aβ40) as a detection antibody.

[8] = higher compound dose given for three months; cited from earlier work

| IC50 [3] [nM] | IC50 [4] [nM] | IC50 [5] [nM] | IC50 [6] [nM] | % Aβ reduction in rat CSF at 10 mpk [7] [%] | % Aβ reduction in rat brain at 10 mpk [7] [%] | SMILES | Aβ peptide levels in the CSF and plasma [1] | clinical safety ([2]; repeated doses up to 200 mg, phase I clinical trial) | safety profile ([2]; phase I clinical trials) | eye toxicity [8] |
| --- | --- | --- | --- | --- | --- | --- | --- | --- | --- | --- |
|  |  |  |  |  |  | C[C@H]1OC[C@]2(c3cc(NC(=O)c4cnc(C(F)F)cn4)ccc3F)N=C(N)SC[C@H]12 [Example E2609] | significant reduction | did not show clinical significant safety concerns |  |  |
|  |  |  |  |  |  | CN1C(=N)N[C@](C)(c2cc(NC(=O)c3ccc(F)cn3)ccc2F)CS1(=O)=O [MK-8931] |  |  | no immediately noticeable side effects |  |
| 5 | 9 | 179 | 42700 | 65 | 61 | C#CCOc1cnc(/C(F)=C/c2cc(F)c(F)c([C@]3(C)CS(=O)(=O)C(C)(C)C(N)=N3)c2)cn1 [Example 204, (R,Z)-5-amino-3-(2,3-difluoro-5-(2-fluoro-2-(5-(prop-2-yn-1-yloxy)pyrazin-2-yl)vinyl)phenyl)-3,6,6-trimethyl-3,6-dihydro-2H-1,4-thiazine 1,1-dioxide] |  |  |  |  |
| 4 | 4 | 90 | 40900 | 45 | 26 | CN1C(N)=N[C@](C)(c2cc(/C=C(\F)c3cnc(OCc4ncco4)cn3)cc(F)c2F)CS1(=O)=O [Example 166, (R,Z)-3-amino-5-(2,3-difluoro-5-(2-fluoro-2-(5-(oxazol-2-ylmethoxy)pyrazin-2-yl)vinyl)phenyl)-2,5-dimethyl-5,6-dihydro-2H-1,2,4-thiadiazine 1,1-dioxide] |  |  |  |  |
| 5 | 7 | 129 | 244000 | 68 | 65 | C#CCOc1cnc(/C(F)=C/c2cnc(F)c([C@]3(C)CS(=O)(=O)C(C)(C)C(N)=N3)c2)cn1 [Example 205, (R,Z)-5-amino-3-(2-fluoro-5-(2-fluoro-2-(5-(prop-2-yn-1-yloxy)pyrazin-2-yl)vinyl)pyridin-3-yl)-3,6,6-trimethyl-3,6-dihydro-2H-1,4-thiazine 1,1-dioxide] |  |  |  |  |
| 1 | 5 | 120 | 207000 | 52 | 34 | C#C[C@H](C)Oc1cnc(/C(F)=C/c2ccc(F)c([C@]3(C)CS(=O)(=O)C(C)(C)C(N)=N3)c2)cn1 [Example 160, (R)-5-amino-3-(5-((Z)-2-(5-((S)-but-3-yn-2-yloxy)pyrazin-2-yl)-2-fluorovinyl)-2-fluorophenyl)-3,6,6-trimethyl-3,6-dihydro-2H-1,4-thiazine 1,1-dioxide] |  |  |  |  |
|  |  |  |  |  |  | C[C@@]1(c2cc(-c3cncnc3)c(F)cc2F)CCSC(N)=N1 [LY 2811376] |  |  |  | damaged the pigment epithelium of the rat's eye |

| SMILES | IC50 [3] [nM] | IC50 [4] [nM] | IC50 [5] [nM] | IC50 [6] [nM] | % Aβ reduction in rat CSF at 10 mpk [7] [%] | % Aβ reduction in rat brain at 10 mpk [7] [%] | Aβ peptide levels in the CSF and plasma [1] | clinical safety ([2]; repeated doses up to 200 mg, phase I clinical trial) | safety profile ([2]; phase I clinical trials) | eye toxicity [8] |
| --- | --- | --- | --- | --- | --- | --- | --- | --- | --- | --- |
| CC1(C)C(N)=N[C@@]2(c3ccc(/C=C(\F)c4ccc(C#N)cn4)cc3F)COC[C@H]2S1(=O)=O [Example 261, 6-((Z)-2-(4-((4aS,7aS)-3-amino-2,2-dimethyl-1,1-dioxido-4a,5,7,7a-tetrahydro-2H-furo[3,4-b][1,4]thiazin-4a-yl)-3-fluorophenyl)-1-fluorovinyl)nicotinonitrile] | 2 | 34 | 12 | 178000 | 69 | 60 |  |  |  |  |
